The text below walks through data of EP0955376A1, “ANTIBIOTIC TKR 459, PRODUCTION METHOD, AND MICROORGANISM” (Takara Shuzo Co, Ltd., priority 1996, dated 1998).

In brackets after ≈: the same amount, converted by molar mass. Where two headings read alike, the source gives them in different places.

Data set [1] has as its system Cryptococcus neoformans TIMM0354. Briefly: Antimicrobial spectrum, liquid medium dilution method. Type of data set: cell-based. To be noted: medium YNBG, minimal concentration causing substantially complete inhibition of growth, read-out: Minimal inhibitory concentration. As to the method:
(§1) The TKR459 obtained was used to determine antimicrobial spectra against various microorganisms. The minimal inhibitory concentration (µg/ml) was measured by the liquid medium dilution method as the minimal concentration causing a substantially complete inhibition of micobial growth. The sub-minimal inhibitory concentration (µg/ml) was determined as the minimal concentration causing a partial inhibition of micobial growth and shown in the parentheses of Table 2. In the table, YNBG stands for a medium comprising 0.67% of yeast nitrogen base (manufactured by Difco) and 1.0% of glucose.

Data set [2] has as its system Candida albicans TIMM0136. The data set is described as above. The data set is classed as cell-based. To be noted: medium YNBG, minimal concentration causing substantially complete inhibition of growth, read-out: Minimal inhibitory concentration. How it is done:
as §1

Data set [3] concerns Candida kefyr TIMM0301. The data set is described as above. Type of data set: cell-based. As to conditions: Kluyveromyces marxianus, medium YNBG. As to the method: as §1
The test system of data set [4] is ICR mice. Briefly: Toxicity after intraperitoneal administration to mice. Type of data set: in vivo. As to conditions: dose 100 mg/kg.
The nature of data set [5]: Solubility in solvents. The data set is classed as physicochemical.

Turning to `CC1(CCC(=O)O)CCCCCCCCCCCCCC(O)C(O)C(O)C(N)C(O)O1` (stereo not drawn) [TKR459], the MIC in data set [1] amounted to 3.13 µg/mL (≈ 6.99 µM); in data set [2], 0.78 µg/mL (≈ 1.74 µM); in data set [3] (minimal concentration causing substantially complete inhibition of growth, read-out: Minimal inhibitory concentration) it was 0.78 µg/mL (≈ 1.74 µM); in data set [3] (value in parentheses, minimal concentration causing partial inhibition of growth, read-out: sub-minimal inhibitory concentration), 0.39 µg/mL (≈ 0.871 µM). Moreover, the toxic signs entry in data set [4] is “no toxic signs”. Besides, the solubility entry in data set [5] (in chloroform) was “sparingly soluble”; in data set [5] (in hexane), “sparingly soluble”; in data set [5] (in methanol), “soluble”; in data set [5] (in water), “soluble”.
